Reference: patent US7812022B2 (GlaxoSmithKline LLC, priority 2004, dated 2010)
Where two headings read alike, the source gives them in different places.

Key:
[1] = system: BT474 and HN5 tumor cell lines; assay: Methylene blue growth inhibition assay (cellular Method A); type: cell-based, Human; details: 3 days, read-out: Activity (Method): growth inhibition IC50 class
How it was run: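 Colo205, BT474 and HN5 cells in DMEM/10% FBS (BT474 10,000, HN5 3,000 cells/well) treated next day with compound in DMEM, 0.3% final DMSO, for 3 days at 37° C. Biomass stained with methylene blue, solubilized, read at OD 620; IC50 interpolated by nonlinear regression from % inhibition versus vehicle.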

[2] = target: T1, ErbB2 or EGFR; assay: ErbB family substrate phosphorylation enzyme assay (HTRF), Method A or Method B; type: biochemical
T1 construct: enzymes purified from a baculovirus expression system; Reagent production was conducted essentially as described in Brignola, P. S., et al, (2002) J. Biol. Chem. 277(2): 1576-1585
How it was run: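 Baculovirus-expressed EGFR or ErbB2 (0.8 or 10 nM in enzyme mix) phosphorylates biotinylated Peptide C with 20 µM ATP and 0.8 µM peptide (substrate-mix levels), MnCl2, pH 7.5. Reaction ran 90 min at 20 °C with EDTA stop and HTRF anti-phosphotyrosine read. Method A: enzyme added last; Method B: 1 h enzyme–compound preincubation.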

[3] = system: Colo205 tumor cell lines; assay: Methylene blue growth inhibition assay (cellular Method A), Colo205; type: cell-based, Human; details: Homo sapiens, COLO 205, 72 h, 3 days, read-out: Activity (Method): growth inhibition IC50 class
Method: Human breast (BT474) and head and neck (HN5) were cultured in low glucose DMEM (Life Technologies 12320-032) containing 10% fetal bovine serum (FBS). Human colon tumor cells (Colo205) were cultured in DMEM (Invitrogen, 10564) containing 10% FBS. The SV40 transformed human mammary epithelial cell line HB4a was transfected with either human H-ras cDNA (HB4a r4.2) or the human c-ErbB2 cDNA (HB4a c5.2). The HB4a clones were cultured in RPMI containing 10% FBS, insulin (5 g/mL), hydrocortisone (5 g/mL), supplemented with the selection agent hygromycin B (50 g/mL). All lines were grown in a humidified incubator at 37° C. in 95% air, 5% CO2. Cells were harvested using trypsin/EDTA, counted using a haemocytometer, and plated in 100 microliters of the appropriate media, at the following densities, in a 96-well tissue culture plate (Falcon 3075): BT474 10,000 cells/well, HN5 3,000 cells/well. The next day, compounds were diluted in DMEM containing […] gentamicin, at twice the final required concentration, from 10 mM stock solutions in DMSO. 100 microliters/well of these dilutions were added to the 100 microliters of media currently on the cell plates. Medium containing 0.6% DMSO was added to control wells. Compounds diluted in DMEM were added to all cell lines. The final concentration of DMSO in all wells was 0.3%. Cells were returned to the incubator (37° C., 10% CO2) for 3 days. Medium was then removed by aspiration. Cell biomass was estimated by staining cells with 90 microliters per well methylene blue (Sigma M9140, 0.5% in 1:1 ethanol:water), and incubation at rt for at least 30 minutes. Stain was removed, and the plates rinsed by immersion in deionized water and air-dried. To release stain from the cells 100 microliters of solubilization solution was added (1% N-lauroyl sarcosine, Sodium salt, Sigma L5125, in PBS), and plates were shaken gently for about 30 minutes. Optical density at 620 nm was measured on a microplate reader. Percent inhibition of cell growth was calculated relative to vehicle treated control wells. Concentration of compound that inhibits 50% of control cell growth (IC50) was interpolated using nonlinear regression (Levenberg-Marquardt) and the equation, y=Vmax*(1−(x/(K+x)))+Y2, where “K” was equal to the IC50. Method B: Celltiter Glo® Growth Inhibition Assays

[4] = Method A: substrate mix added first, reaction started with enzyme mix
[5] = Method B: enzyme mix pre-incubated with compound 1 hour at 20° C., started with substrate mix

Compound | IC50 ([1]; Homo sapiens, BT-474, 72 h) | Activity (Method): pIC50 class against ErbB2 or EGFR [2, 4] | IC50 [3] | Activity (Method): pIC50 class against ErbB2 or EGFR [2, 5] | IC50 [1]
CC(c1cccc(Nc2nccc(-c3c(-c4cccc(NC(=O)c5c(F)cccc5F)c4)nn4ccccc34)n2)c1)S(C)(=O)=O (racemic) [Example 117, 2,6-Difluoro-N-(3-{3-[2-({3-[1-(methylsulfonyl)ethyl]-phenyl}amino)-4-pyrimidinyl]pyrazolo[1,5-a]pyridin-2-yl}phenyl)benzamide] | < 100 nM | ++ (A) (at least one pIC50 measurement greater than 6 against either ErbB2 or EGFR but no measurement greater than pIC50 of 7) | 100 to 1000 nM |  | 
O=C(Nc1ccccc1)Nc1cccc(-c2nn3ccccc3c2-c2ccnc(Nc3ccc4c(c3)OCCO4)n2)c1 [Example 1, 1-(3-{3-[2-(2,3-Dihydro-benzo[1,4]dioxin-6-ylamino)-pyrimidin-4-yl]-pyrazolo[1,5-]pyridin-2-yl}-phenyl)-3-phenyl-urea] | > 1000 nM | ++ (A) (at least one pIC50 measurement greater than 6 against either ErbB2 or EGFR but no measurement greater than pIC50 of 7) | > 1000 nM |  | 
O=C(Nc1cccc(-c2nn3ccccc3c2-c2ccnc(Nc3ccc4c(c3)OCCO4)n2)c1)Nc1ccccc1Cl [Example 2, N-(2-Chlorophenyl)-N-(3-{3-[2-(2,3-dihydro-1,4-benzodioxin-6-ylamino)-4-pyrimidinyl]pyrazolo[1,5-a]pyridin-2-yl}phenyl)urea] | > 1000 nM | ++ (A) (at least one pIC50 measurement greater than 6 against either ErbB2 or EGFR but no measurement greater than pIC50 of 7) | > 1000 nM |  | 
O=C(Nc1cccc(-c2nn3ccccc3c2-c2ccnc(Nc3ccc4c(c3)OCCO4)n2)c1)c1ccccc1 [Example 4, N-(3-{3-[2-(2,3-Dihydro-benzo[1,4]dioxin-6-ylamino)-pyrimidin-4-yl]-pyrazolo[1,5-]pyridin-2-yl}-phenyl)-benzamide] | < 100 nM | +++ (A) (at least one pIC50 measurement of greater than 7 against either ErbB2 or EGFR) | 100 to 1000 nM |  | 
COc1cccc(C(=O)Nc2cccc(-c3nn4ccccc4c3-c3ccnc(Nc4ccc5c(c4)OCCO5)n3)c2)c1 [Example 5, N-(3-{3-[2-(2,3-Dihydro-benzo[1,4]dioxin-6-ylamino)-pyrimidin-4-yl]-pyrazolo[1,5]-pyridin-2-yl}-phenyl)-3-methoxy-benzamide] | 100 to 1000 nM | +++ (A) (at least one pIC50 measurement of greater than 7 against either ErbB2 or EGFR) | > 1000 nM |  | 
O=C(Nc1cccc(-c2nn3ccccc3c2-c2ccnc(Nc3cccc(F)c3)n2)c1)c1cc(F)ccc1Cl [Example 11, 2-Chloro-5-fluoro-N-(3-{3-[2-(3-fluoro-phenylamino)-pyrimidin-4-yl]-pyrazolo[1,5-a]pyridin-2-yl}-phenyl)-benzamide] | 100 to 1000 nM |  | > 1000 nM | +++ (B) (at least one pIC50 measurement of greater than 7 against either ErbB2 or EGFR) | 
O=C(Nc1cccc(-c2nn3ccccc3c2-c2ccnc(Nc3cccc(F)c3)n2)c1)c1cccs1 [Example 25, N-[3-(3-{2-[(3-fluorophenyl)amino]-4-pyrimidinyl}pyrazolo[1,5-a]pyridin-2-yl)phenyl]-2-thiophenecarboxamide] | 100 to 1000 nM |  | > 1000 nM | +++ (B) (at least one pIC50 measurement of greater than 7 against either ErbB2 or EGFR) | 
COc1cccc(Nc2nccc(-c3c(-c4cccc(NC(=O)c5c(F)cccc5F)c4)nn4ccccc34)n2)c1 [Example 28, 2,6-Difluoro-N-{3-[3-(2-{[3-(methyloxy)phenyl]-amino}-4-pyrimidinyl)pyrazolo[1,5-a]pyridin-2-yl]phenyl}benzamide] | < 100 nM |  | 100 to 1000 nM | +++ (B) (at least one pIC50 measurement of greater than 7 against either ErbB2 or EGFR) | 
COc1ccc(Nc2nccc(-c3c(-c4cccc(NC(=O)c5c(F)cccc5F)c4)nn4ccccc34)n2)cc1F [Example 29, 2,6-Difluoro-N-{3-[3-(2-{[3-fluoro-4-(methyloxy)-phenyl]amino}-4-pyrimidinyl)pyrazolo[1,5-a]pyridin-2-yl]phenyl}benzamide] | < 100 nM | ++ (A) (at least one pIC50 measurement greater than 6 against either ErbB2 or EGFR but no measurement greater than pIC50 of 7) | > 1000 nM |  | 
O=C(Nc1cccc(-c2nn3ccccc3c2-c2ccnc(Nc3ccc4nn[nH]c4c3)n2)c1)c1c(F)cccc1F [Example 31, N-(3-{3-[2-(1H-1,2,3-benzotriazol-5-ylamino)-4-pyrimidinyl]pyrazolo[1,5-a]pyridin-2-yl}phenyl)-2,6-difluorobenzamide] | < 100 nM |  | 100 to 1000 nM | +++ (B) (at least one pIC50 measurement of greater than 7 against either ErbB2 or EGFR) | 
O=C(Nc1cccc(-c2nn3ccccc3c2-c2ccnc(Nc3ccc(-c4cc[nH]n4)cc3)n2)c1)c1c(F)cccc1F [Example 101, 2,6-Difluoro-N-{3-[3-(2-{[4-(1H-pyrazol-3-yl)phenyl]amino}-4-pyrimidinyl)pyrazolo[1,5-a]pyridin-2-yl]phenyl}benzamide] | 100 to 1000 nM |  | > 1000 nM |  | 
NC(=O)c1ccc(Nc2nccc(-c3c(-c4cccc(NC(=O)c5c(F)cccc5F)c4)nn4ccccc34)n2)cc1 [Example 104, N-{3-[3-(2-{[4-(Aminocarbonyl)phenyl]amino}-4-pyrimidinyl)pyrazolo[1,5-a]pyridin-2-yl]phenyl}-2,6-difluorobenzamide-ethane (1:1)] | < 100 nM |  | 100 to 1000 nM |  | 
COc1ccc(Nc2nccc(-c3c(-c4cccc(NC(=O)c5c(F)cccc5F)c4)nn4c(C)cccc34)n2)cc1F [Example 157, 2,6-Difluoro-N-[3-(3-{2-[(3-fluoro-4-methoxy-phenyl)amino]pyrimidin-4-yl}-7-methylpyrazolo[1,5-a]pyridin-2-yl)phenyl]benzamide] | 100 to 1000 nM | ++ (A) (at least one pIC50 measurement greater than 6 against either ErbB2 or EGFR but no measurement greater than pIC50 of 7) |  |  | 
COc1cccc2c(-c3ccnc(Nc4cccc(C(F)(F)F)c4)n3)c(-c3cccc(NC(=O)c4c(F)cccc4F)c3)nn12 [Example 158, 2,6-Difluoro-N-{3-[7-methoxy-3-(2-{[3-(trifluoro-methyl)phenyl]amino}pyrimidin-4-yl)pyrazolo[1,5-a]pyridin-2-yl]phenyl}benzamide] | 100 to 1000 nM | ++ (A) (at least one pIC50 measurement greater than 6 against either ErbB2 or EGFR but no measurement greater than pIC50 of 7) |  |  | 
CN(C)C1Cc2ccc(Nc3nccc(-c4c(-c5cccc(NC(=O)c6c(F)cccc6F)c5)nn5ccccc45)n3)cc2C1 (stereo not drawn) [Example 176, N-{3-[3-(2-{[2-(Dimethylamino)-2,3-dihydro-1H-inden-5-yl]amino}-4-pyrimidinyl)pyrazolo[1,5-a]pyridin-2-yl]phenyl}-2,6-difluorobenzamide] | < 100 nM |  | 100 to 1000 nM |  | 
N-[3-(3-{2-[4-(4-Cyanophenyl)phenylamino]-4-pyrimidinyl}-7-trifluoropyrazolo[1,5-b]pyridin-2-yl)phenyl]-2,6-difluorobenzamide [Example 93] |  | ++ (A) (at least one pIC50 measurement greater than 6 against either ErbB2 or EGFR but no measurement greater than pIC50 of 7) |  |  | 100 to 1000 nM
